The results in this text go back to patent US7037656B2, “Methods and compositions for identifying ligands for nuclear receptors” (priority 2000, dated 2006).

Holding throughout (test): Yeast 6x EcRE-lacZ β-galactosidase transactivation assay
One test has as its target T1, Aa ΔA/B EcR + Aa USPb (Aedes aegypti, UniProt P49880).
T1 construct: ubiquitin (human, 76 aa) (N, cleaved yes); expressed in transfected cells
It is filed as cell-based. As to conditions: RH 5992 10 μM, 4 hours, DMSO control 0.177. Here is the method:
(§1) Briefly, yeast cells are cultured in 5 mL of YPD liquid medium overnight at 30° C. The cell culture was diluted 1:20 in YPD media and further grown until cell density reached an O.D of 0.6. at OD600. The cells were pelleted by centrifugation and washed with 10 mL of TE+0.1M lithium acetate. Cells are then resuspended in 10 mL TE+0.1M lithium acetate and incubated at 30° C. for 1 hour. Cells are collected and resuspended in 0.5 mL of TE+ 0.1M lithium acetate. Aliquots of cells (50 μL), were incubated for 15 minutes at 30° C. with 1–2 μg plasmid DNA in the presence of 5 μg of denatured salmon sperm DNA as DNA carrier. In the case of co-transformation, the indicated plasmids were added simultaneously. 50% polyethyleneglycol of molecular weight 4000, diluted in TE, was added to a final concentration of 35%. DMSO was added to the transformation solution simultaneously to a final concentration 3%. The samples were mixed well by vortexing and incubated for an additional 30 minutes at 30° C. The cell mixture is then heated for 15 minutes at 42° C. Cells were then collected and plated onto appropriate yeast selective media. Transformants of 4 plasmids are selected on the complete media without tryptophan, uracil, leucine and histidine.
(§2) The yeast cells grown overnight in selective liquid media at 30° C. were diluted in prewarmed liquid selective media to 0.1 at OD600 (ODculture). 100 μl of the cell culture was spiked to each well of a.96-well microtiter plate. […] After 4 hours of incubation, 100 μl of 2× “Z” Sarcosine-ONPG buffer (120 mM Na2HPO4, 80 mM NaH2PO4, 20 mM KCl, 2 mM MgSO4, 100 mM beta-mercaptoethanol (Sigma), pH 7.0, 0.4% lauroyl sarcosine (Sigma), 4 mg/mL ONPG (Diagnostic Chemicals limited) was added to each well and the plate was further incubated at 37° C. The 2× “Z” Sarcosine-ONPG buffer is freshly prepared or stored at −20° C. prior to use. After incubation at 37° C. for 1 hour. The reaction was stopped by adding 100 μL of quenching solution 0.5 M Na2CO3 and OD405 (ODreaction) and beta-galactosidase activity was measured in a micro plate reader (Biotek) at a wave length of 405–450 nanometers. […]
(§3) Using the transformation method described above, yeast were co-transformed with a reporter gene as shown in FIG. 2 and the expression vector encoding the full-length Aedes aegypti ecdysone receptor, Aa EcR (FIG. 7A) in the presence or absence of the Aa EcR heterodimer partner, Aa USP (a or b form, FIGS. 8A and 8B respectively). […] As the N-terminal portion of the AaEcR receptor is reported to play a role in ligand independent transactivation, an expression vector containing an N-terminal deletion in the Aa EcR was constructed (see FIG. 7B) and assessed in the β-galactosidase assays described above. […]

In test [1] the target is T2, Aa ΔA/B EcR + Aa USPa + GRIP1 (Aedes aegypti, UniProt P49880).
T2 construct: ubiquitin (human, 76 aa) (N, cleaved yes); expressed in transfected cells
The format is cell-based. Particulars: RH 5992 10 μM, 4 hours, DMSO control 0.272. The protocol:
as §1, §2, §3

For another test, the target named is T3, Aa EcR (Aedes aegypti, UniProt P49880, DEL155-194).
T3 construct: ubiquitin (human, 76 aa) (N, cleaved yes); expressed in transfected cells
It is filed as cell-based. As to conditions: RH 5992 10 μM, 4 hours, DMSO control 2.500. The protocol: as §1, §2, §3

The target of test [2] is T4, Aa ΔA/B EcR + AaUSPb + GRIP1 (Aedes aegypti, UniProt P49880).
T4 construct: ubiquitin (human, 76 aa) (N, cleaved yes); expressed in transfected cells
The format is cell-based. As to conditions: RH 5992 10 μM, 4 hours, DMSO control 0.240. The protocol:
as §1, §2, §3

Test [3] concerns the target T5, Aa ΔA/B EcR + Cf ΔA/B USP + GRIP1 (Aedes aegypti, UniProt P49880).
T5 construct: ubiquitin (human, 76 aa) (N, cleaved yes); expressed in transfected cells
The format is cell-based, Aedes aegypti; Choristoneura fumiferana. As to conditions: RH 5992 10 μM, 4 hours, DMSO control 0.250. Here is the method: Briefly, yeast cells are cultured in 5 mL of YPD liquid medium overnight at 30° C. The cell culture was diluted 1:20 in YPD media and further grown until cell density reached an O.D of 0.6. at OD600. The cells were pelleted by centrifugation and washed with 10 mL of TE+0.1M lithium acetate. Cells are then resuspended in 10 mL TE+0.1M lithium acetate and incubated at 30° C. for 1 hour. Cells are collected and resuspended in 0.5 mL of TE+ 0.1M lithium acetate. Aliquots of cells (50 μL), were incubated for 15 minutes at 30° C. with 1–2 μg plasmid DNA in the presence of 5 μg of denatured salmon sperm DNA as DNA carrier. In the case of co-transformation, the indicated plasmids were added simultaneously. […]
as §3

T3 sequence (P49880 other isoform, or with tags, fused parts or gaps DEL155-194): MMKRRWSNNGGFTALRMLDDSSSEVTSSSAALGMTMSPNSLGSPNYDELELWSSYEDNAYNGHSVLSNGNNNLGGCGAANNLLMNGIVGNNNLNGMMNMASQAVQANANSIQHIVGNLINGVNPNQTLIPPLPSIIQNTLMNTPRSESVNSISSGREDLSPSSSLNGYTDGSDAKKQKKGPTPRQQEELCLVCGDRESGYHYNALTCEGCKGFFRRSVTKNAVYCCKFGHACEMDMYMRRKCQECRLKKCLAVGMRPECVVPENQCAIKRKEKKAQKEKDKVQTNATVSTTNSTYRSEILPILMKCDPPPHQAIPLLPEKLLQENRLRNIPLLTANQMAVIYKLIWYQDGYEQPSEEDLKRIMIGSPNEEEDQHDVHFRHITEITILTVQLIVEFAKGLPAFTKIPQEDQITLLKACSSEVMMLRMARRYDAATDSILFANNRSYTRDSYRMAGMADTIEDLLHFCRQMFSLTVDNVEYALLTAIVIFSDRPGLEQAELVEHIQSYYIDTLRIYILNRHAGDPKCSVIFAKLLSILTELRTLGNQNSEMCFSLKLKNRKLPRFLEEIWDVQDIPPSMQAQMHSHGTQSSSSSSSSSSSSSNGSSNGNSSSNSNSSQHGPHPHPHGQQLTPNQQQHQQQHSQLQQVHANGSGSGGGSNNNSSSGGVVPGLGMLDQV
T1 sequence (P49880 with tags, fused parts or gaps): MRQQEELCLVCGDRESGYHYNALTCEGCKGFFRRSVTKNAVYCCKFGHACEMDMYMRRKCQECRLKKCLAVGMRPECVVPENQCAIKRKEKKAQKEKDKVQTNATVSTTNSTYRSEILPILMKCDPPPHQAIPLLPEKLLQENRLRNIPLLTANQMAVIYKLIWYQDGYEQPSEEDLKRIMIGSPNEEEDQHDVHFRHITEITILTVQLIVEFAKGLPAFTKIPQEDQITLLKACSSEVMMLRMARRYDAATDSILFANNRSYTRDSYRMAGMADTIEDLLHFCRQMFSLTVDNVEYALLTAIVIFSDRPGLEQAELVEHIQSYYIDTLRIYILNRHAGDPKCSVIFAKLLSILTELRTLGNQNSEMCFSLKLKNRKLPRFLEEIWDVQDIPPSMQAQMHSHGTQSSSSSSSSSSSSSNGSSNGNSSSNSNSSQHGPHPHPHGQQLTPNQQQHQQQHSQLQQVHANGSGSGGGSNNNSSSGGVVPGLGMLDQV
T2 sequence (P49880 with tags, fused parts or gaps): as above
T5 sequence (P49880 with tags, fused parts or gaps): as above
T5 sequence (O76202 with tags, fused parts or gaps partner): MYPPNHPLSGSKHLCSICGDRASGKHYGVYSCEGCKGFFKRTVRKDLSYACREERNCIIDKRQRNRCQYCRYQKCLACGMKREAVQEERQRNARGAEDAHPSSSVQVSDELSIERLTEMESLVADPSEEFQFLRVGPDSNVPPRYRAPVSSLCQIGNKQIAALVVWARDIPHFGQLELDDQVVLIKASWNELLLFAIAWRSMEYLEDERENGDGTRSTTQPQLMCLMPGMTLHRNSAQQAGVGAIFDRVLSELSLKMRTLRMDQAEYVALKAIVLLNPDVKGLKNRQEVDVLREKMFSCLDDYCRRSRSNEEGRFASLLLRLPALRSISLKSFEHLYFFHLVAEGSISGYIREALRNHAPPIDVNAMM
T4 sequence (P49880 with tags, fused parts or gaps): as the sequence (P49880 with tags, fused parts or gaps) above

With `CCc1ccc(C(=O)NN(C(=O)c2cc(C)cc(C)c2)C(C)(C)C)cc1` [RH 5992, tebufenozide], the β-galactosidase activity on Aa ΔA/B EcR + Aa USPb was determined as 0.184; in test [1], 2.026; at Aa EcR, 2.750; in test [2], 2.074; in test [3], 3.000.
